The assay has as its target T1, acetylcholine muscarinic M1 receptor (Homo sapiens, UniProt P11229).
T1 construct: expressed in transfected cells; host or cells: CHOnfat (CHO cells; also called CHOK1/hM1)
T1 sequence (P11229 1-460): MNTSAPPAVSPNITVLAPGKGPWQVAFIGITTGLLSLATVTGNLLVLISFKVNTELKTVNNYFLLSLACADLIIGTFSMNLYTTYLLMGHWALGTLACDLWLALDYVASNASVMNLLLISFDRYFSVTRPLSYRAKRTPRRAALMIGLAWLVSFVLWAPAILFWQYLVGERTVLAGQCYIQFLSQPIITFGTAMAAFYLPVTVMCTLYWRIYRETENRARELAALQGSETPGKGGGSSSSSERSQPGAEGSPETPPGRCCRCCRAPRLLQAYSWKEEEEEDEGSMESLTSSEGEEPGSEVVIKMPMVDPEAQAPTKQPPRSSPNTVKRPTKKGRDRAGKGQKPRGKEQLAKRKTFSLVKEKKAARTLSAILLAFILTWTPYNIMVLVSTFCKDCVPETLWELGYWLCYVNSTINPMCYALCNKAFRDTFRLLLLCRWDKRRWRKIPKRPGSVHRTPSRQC
The assay is described as follows: muscarinic FLIPR assay: potentiation of acetylcholine (EC20)-stimulated intracellular Ca2+ in CHOnfat/hM1 cells. It is filed as cell-based. The note with it: 4 min preincubation, then EC20 acetylcholine (3 nM final), read-out: IP Value (inflection point). The procedure: The assay studies the effect of one or several concentrations of test compounds on basal or acetylcholine-stimulated Ca^2+ levels using FLIPR.
Compounds are prepared and subjected to a preincubation period of 4 min. Thereafter, a single EC20 concentration of acetylcholine is added to each well (3 nM final). The intracellular Ca^2+ level of each sample is measured and compared to an acetylcholine control to determine any modulatory activity
Cells: CHOnfat/hM1, hM2, hM3 or hM4 cells are plated 24 hr before the assay at a density of 18,000 cells/well (100 μL) in a 384 well plate. CHOnfat/hM1 and CHOnfat/hM3 Growth Medium: 90% DMEM (Hi Glucose); 10% HI FBS; 2 mM L-glutamine; 0.1 mM NEAA; Pen-Strep; and 1 mg/ml Geneticin, are added. For M2Gqi5CHOnfat and M4Gqi5CHOnfat cells, an additional 600 ug/ml hygromycin is added.
Equipment: 384 well plate, 120 μL addition plate; 96-well Whatman 2 ml Uniplate Incubator, 37° C., 5% CO2; Skatron EMBLA-384 Plate Washer; Multimek Pipetting System; Genesis Freedom 200 System; Mosquito System; Temo Nanolitre Pipetting System; and FLIPR^384 Fluorometric Imaging Plate Reader System are used.
Buffers. Assay Buffer: Hanks Balanced Salt Solution, with 20 mM Hepes, 2.5 mM Probenecid (Sigma P-8761) first dissolved in 1 N NaOH, 1% Bovine Serum Albumin (Sigma A-9647). Dye Loading Buffer: Assay Buffer plus 1% Fetal Bovine Serum and Fluo-4AM/Pluronic Acid Mixture. 2 mM Fluo-4AM ester stock in DMSO (Molecular Probes F-14202) Concentration of 2 μM in buffer for a final concentration of 1 μM in Assay. 20% Pluronic Acid Solution stock, with concentration of 0.04% in Buffer, 0.02% in Assay.
65 μL of 2 mM Fluo-4AM are mixed with 130 μL of 20% Pluronic Acid. The resulting solution and 650 μL FBS is added to the assay buffer for a total volume of 65 mL. Positive Controls; 4-Br-A23187: 10 mM in DMSO; final concentration 10 μM. Acetylcholine: 10 mM in water, working stock at both 20 μM and 30 μM in assay buffer, final concentration of 10 μM. This is used to check the maximum stimulation of the CHOK1/hM1 cells. 20 μM (2×) acetylcholine is added in the preincubation part of the assay, and the 30 μM (3×) stock is added in the second part. (EC20)Acetylcholine; 10 mM in water, working stock of 9 nM (3×), and final concentration in assay is 3 nM. This is used after the preincubation with test compounds. Addition of the EC20 Acetylcholine to each well with a test compound will ascertain any modulator activity. 24 wells contain 3 nM Acetylcholine alone as a control.
Screening Plate: Compounds are titrated in 96-well plates (columns 2-11), 100% DMSO, started at a concentration of 15 mM (150× stock concentration), and 3-fold serial dilutions using Genesis Freedom 200 System. Four 96-well plates are combined into a 384-well plate using Mosquito Nanolitre Pipetting System by transferring 1 μl of serial diluted compounds to each well, and 1 mM acetylcholine (100× stock concentration) were added as a control. Using Temo, 49 μl assay buffer is added to each well of the 384-well plate right before assay.
In a 96-well Whatman 2 ml Uniplate, 9 nM Acetylcholine (3×) is pipetted into wells corresponding to the screening compounds, and into control wells. The 30 μM acetylcholine control (3×) is added into control wells, and the 3× agonist plate is transferred into a 384 well plate.
Cells are washed three times with 100 μL of buffer, leaving 30 μL of buffer in each well. Using Multimek, 30 μL of Dye Loading Buffer is added into each well and incubated at 37° C., 5% CO2 for up to one hr.
After 60 min, the cells are washed three times with 100 μL of buffer, leaving 30 μL of buffer in each well. The cell plate, screening plate, and agonist addition plates are placed on the platform in the FLIPR and the door closed. A signal test to check background fluorescence and basal fluorescence signal is performed. Laser intensity is adjusted if necessary. […]
As to `O=c1c2nn(Cc3ccc(-c4ccc(O)nc4)cc3)c3ncccc3c-2nn1C1CCCOC1` (racemic) [Example 32, (±)-5-{[4-(6-Hydroxypyridin-3-yl)phenyl]methyl}-2-(tetrahydro-2H-pyran-3-yl)-2,5-dihydro-3H-pyrazolo[4,3-c]pyrido[3,2-e]pyridazin-3-one], the EC50 was 1690 nM.
Next, `O=c1c2nn(Cc3ccc(-n4cccn4)cc3)c3ncccc3c-2nn1C1CCCOC1` (racemic) [Example 10, (±)-5-{[4-(1H-Pyrazol-1-yl)phenyl]methyl}-2-(tetrahydro-2H-pyran-3-yl)-2,5-dihydro-3H-pyrazolo[4,3-c]pyrido[3,2-e]pyridazin-3-one]: 438 nM.
For the compound `Cc1cc(-c2ccc(Cn3nc4c(=O)n(C5CCCOC5)nc-4c4sccc43)cc2)ccn1` (racemic) [Example 39, (±)-5-{[4-(2-Methylpyridin-4-yl)phenyl]methyl}-2-(tetrahydro-2H-pyran-3-yl)-2,5-dihydro-3H-pyrazolo[4,3-c]thieno[2,3-e]pyridazin-3-one], the EC50 stood at 120 nM.
`Cc1cccc(-n2nc3c4cccnc4n(Cc4ccc(-c5cnn(C)c5)nc4)nc-3c2=O)c1C` [Example 1, 2-(2,3-Dimethylphenyl)-5-{[6-(1-methyl-1H-pyrazol-4-yl)pyridin-3-yl]methyl}-2,5-dihydro-3H-pyrazolo[4,3-c]pyrido[3,2-e]pyridazin-3-one]: the EC50 is 58 nM.
As for `Cc1ccc(-c2ccc(Cn3nc4c(=O)n(-c5cccc(C)c5F)nc-4c4cccnc43)cn2)cn1` [Example 6, 2-(2-Fluoro-3-methylphenyl)-5-[(6′-methyl-2,3′-bipyridin-5-yl)methyl]-2,5-dihydro-3H-pyrazolo[4,3-c]pyrido[3,2-e]pyridazin-3-one], the EC50 was 36 nM.
Next, `Cc1ccc(-c2ccc(Cn3nc4c(=O)n(C5CCCOC5)nc-4c4cccnc43)cn2)cn1` (racemic) [Example 9, (±)-5-[(6′-Methyl-2,3′-bipyridin-5-yl)methyl]-2-(tetrahydro-2H-pyran-3-yl)-2,5-dihydro-3H-pyrazolo[4,3-c]pyrido[3,2-e]pyridazin-3-one]: 1160 nM; `Cc1cccc(-n2nc3c4cccnc4n(Cc4ccc(Cl)nc4)nc-3c2=O)c1C` [Example 4, 5-[(6-Chloropyridin-3-yl)methyl]-2-(2,3-dimethylphenyl)-2,5-dihydro-3H-pyrazolo[4,3-c]pyrido[3,2-e]pyridazin-3-one]: 366 nM.
As for `Cc1cncc(-c2ccc(Cn3nc4c(=O)n(C5CCCOC5)nc-4c4cccnc43)cc2)c1` (stereo not shown) [Example 13], the EC50 worked out at 578 nM.
To `Cc1ccc(-c2ccc(Cn3nc4c(=O)n(C5CCCOC5)nc-4c4cccnc43)cc2)cn1` (racemic) [Example 11, (±)-5-{[4-(6-Methylpyridin-3-yl)phenyl]methyl}-2-(tetrahydro-2H-pyran-3-yl)-2,5-dihydro-3H-pyrazolo[4,3-c]pyrido[3,2-e]pyridazin-3-one] belongs 370 nM; to `O=c1c2nn(Cc3ccc(-c4cscn4)cc3)c3ncccc3c-2nn1C1CCCOC1` (racemic) [Example 31, (±)-2-(Tetrahydro-2H-pyran-3-yl)-5-{[4-(1,3-thiazol-4-yl)phenyl]methyl}-2,5-dihydro-3H-pyrazolo[4,3-c]pyrido[3,2-e]pyridazin-3-one], 295 nM; to `Cc1c(-n2nc3c4sccc4n(Cc4ccc(-n5cccn5)cc4)nc-3c2=O)ccnc1F` [Example 34], 33 nM.
For the compound `Cc1ccc(-c2ccc(Cn3nc4c(=O)n([C@@H]5CCCC[C@H]5O)nc-4c4cccnc43)cn2)cn1` (racemic) [Example 8, (±)-2-(trans-2-Hydroxycyclohexyl)-5-[(6′-methyl-2,3′-bipyridin-5-yl)methyl]-2,5-dihydro-3H-pyrazolo[4,3-c]pyrido[3,2-e]pyridazin-3-one], the EC50 came to 140 nM.
To `Cc1ccccc1-n1nc2c3sccc3n(Cc3ccc(-n4cccn4)cc3)nc-2c1=O` [Example 33, 2-(2-Methylphenyl)-5-{[4-(1H-pyrazol-1-yl)phenyl]methyl}-2,5-dihydro-3H-pyrazolo[4,3-c]thieno[2,3-e]pyridazin-3-one] belongs 48 nM; to `O=c1c2nn(Cc3ccc(-n4cccn4)cc3)c3ccsc3c-2nn1C1CCCOC1` (racemic) [Example 37, (±)-5-{[4-(1H-Pyrazol-1-yl)phenyl]methyl}-2-(tetrahydro-2H-pyran-3-yl)-2,5-dihydro-3H-pyrazolo[4,3-c]thieno[2,3-e]pyridazin-3-one], 96 nM; to `Cc1ccc(-c2ccc(Cn3nc4c(=O)n(-c5cccc(C)c5C)nc-4c4cccnc43)cn2)cn1` [Example 5, 2-(2,3-Dimethylphenyl)-5-[(6′-methyl-2,3′-bipyridin-5-yl)methyl]-2,5-dihydro-3H-pyrazolo[4,3-c]pyrido[3,2-e]pyridazin-3-one], 109 nM.
On to `Cc1ccc(-c2ccc(Cn3nc4c(=O)n(C5CCCOC5)nc-4c4sccc43)cc2)cn1` (racemic) [Example 38, (±)-5-{[4-(6-Methylpyridin-3-yl)phenyl]methyl}-2-(tetrahydro-2H-pyran-3-yl)-2,5-dihydro-3H-pyrazolo[4,3-c]thieno[2,3-e]pyridazin-3-one], for which the EC50 is 183 nM.

The values above are taken from US8293744B2, “Heterocyclic fused cinnoline M1 receptor positive allosteric modulators” (Merck Sharp & Dohme Corp., priority 2009, dated 2012).
